Like-named read-outs stand apart in the source and are kept apart here.
Columns and labels:
NDM-1 = NDM-1 (Klebsiella pneumoniae, UniProt C7C422); assay: biochemical; assay type: biochemical; details: read-out: NDM-1 IC50
IMP-1 = IMP-1 (Serratia marcescens, UniProt P52699); assay: biochemical; assay type: biochemical; details: read-out: IMP-1 IC50
VIM-1 = VIM-1 (Pseudomonas aeruginosa (strain ATCC 15692 / DSM 22644 / CIP 104116 / JCM 14847 / LMG 12228 / 1C / PRS 101 / PAO1), UniProt A0A0F7KYQ8); assay: Enzyme activity: determination of IC50, fluorescence assay with CCF2-FA substrate (VIM-1); assay type: biochemical
[1] = system: Escherichia coli expressing NDM-1 (CLB30016); assay: Antibiotic potentiation activity: synergistic concentration (MITC95) with imipenem, OD600 growth; assay type: cell-based
Protocol: (§1) Antibiotic Potentiation Activity: Determination of Synergistic Concentration
(§2) The bacterial strains tested included the clinical strains Escherichia coli expressing NDM-1 (CLB30005, CLB30016), Serratia marcescens expressing IMP-1 (CL5741), and Klebsiella pneumoniae expressing VIM-1 (IHMA599644) Inhibitor activity was measured in the presence and absence of imipenem in a 384-well microplate.
(§3) The clinical strains CLB30016, CL5741 and IHMA599644 were grown on trypticase soy agar containing 5% sheep's blood. The clinical strain CLB30005 was grown on Mueller Hinton broth agar containing 8 ug/ml imipenem. The bacteria on agar plates were incubated at 35° C. with humidity overnight. The following day, individual colonies from each clinical strain were picked and resuspended in 5 ml saline to attain an OD600 of 0.14, 0.11, 0.15 and 0.13, for CLB30005, CLB30016, CL5741 and IHMA599644, respectively. These were further diluted 1:100 into 1.1×CAMHB and used to inoculate the test wells as described below.
(§4) Imipenem in 10 mM 3-(N-morpholino)propanesulfonic acid (MOPS, pH 7) was stored in single use aliquots at −80° C. […] On the day of the assay, 4 μl of antibiotic was added to 45 ul of bacteria followed by 1 μl of test compound and mixed by pipetting and with an orbital shaker. The concentration of antibiotic used in the assay was 4 μg/ml, or optionally 1 μg/ml. Microplates were covered and incubated at 35° C. for 22 hours to 24 hours. At the end of the incubation, absorbance was determined using a spectrophotometer.

[2] = system: Klebsiella pneumoniae expressing VIM-1 (IHMA599644); assay: as above; assay type: cell-based
Protocol: as §1, §2, §3, §4

[3] = system: Serratia marcescens expressing IMP-1 (CL5741); assay: as above; assay type: cell-based
Protocol: as §1, §2, §3, §4

[4] = NDM-1 enzyme, CCF2-FA fluorescence assay
[5] = IMP-1 enzyme, CCF2-FA fluorescence assay
[6] = VIM-1 enzyme, CCF2-FA fluorescence assay, read-out: VIM-1 IC50
[7] = Escherichia coli expressing NDM-1 (CLB30016), 95% growth inhibition
[8] = Klebsiella pneumoniae expressing VIM-1 (IHMA599644), 95% growth inhibition
[9] = Serratia marcescens expressing IMP-1 (CL5741), 95% growth inhibition
[10] = fluorescence assay with CCF2-FA substrate
[11] = fluorescence assay with CCF2-FA substrate, read-out: VIM-1 IC50
[12] = CLB30016 (NDM-1), 95% inhibition of bacterial growth
[13] = IHMA599644 (VIM-1), 95% inhibition of bacterial growth
[14] = CL5741 (IMP-1), 95% inhibition of bacterial growth
[15] = VIM-1 IC50, fluorescence assay with CCF2-FA substrate
[16] = NDM-1 enzyme, CCF2-FA substrate
[17] = IMP-1 enzyme, CCF2-FA substrate
[18] = VIM-1 enzyme, CCF2-FA substrate, read-out: VIM-1 IC50
[19] = (CLB30016, NDM-1), 95% growth inhibition
[20] = Klebsiella pneumoniae IHMA599644 (VIM-1), 95% growth inhibition
[21] = Serratia marcescens CL5741 (IMP-1), 95% growth inhibition
[22] = concentration giving 95% inhibition of bacterial growth

Sequence of IMP-1 (P52699 whole entry, looked up): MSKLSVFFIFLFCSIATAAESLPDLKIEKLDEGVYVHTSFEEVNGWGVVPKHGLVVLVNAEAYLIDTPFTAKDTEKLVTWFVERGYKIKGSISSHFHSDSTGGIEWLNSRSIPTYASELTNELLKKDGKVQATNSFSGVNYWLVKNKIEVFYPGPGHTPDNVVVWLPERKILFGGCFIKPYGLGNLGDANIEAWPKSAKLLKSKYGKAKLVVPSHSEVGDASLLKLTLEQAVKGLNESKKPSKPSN
Sequence of NDM-1 (C7C422 whole entry, looked up, species assumed): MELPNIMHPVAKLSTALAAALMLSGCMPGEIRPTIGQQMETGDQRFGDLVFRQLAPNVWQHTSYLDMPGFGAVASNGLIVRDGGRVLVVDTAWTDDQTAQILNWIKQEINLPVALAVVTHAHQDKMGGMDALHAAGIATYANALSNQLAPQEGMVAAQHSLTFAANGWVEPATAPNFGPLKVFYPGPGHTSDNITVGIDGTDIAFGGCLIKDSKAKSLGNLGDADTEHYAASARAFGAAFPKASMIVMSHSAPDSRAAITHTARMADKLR

SMILES	IC50 (NDM-1; [10])	IC50 (IMP-1; [10])	Escherichia coli MITC95 [1, 12]	Klebsiella pneumoniae MITC95 [2, 13]	Serratia marcescens MITC95 [3, 14]	IC50 (NDM-1; [16])	IC50 (IMP-1; [17])	IC50 (VIM-1; [18])	Escherichia coli MITC95 [1, 19]	Klebsiella pneumoniae MITC95 [2, 20]	Serratia marcescens MITC95 [3, 21]	further results
CNCc1ccc(-c2cccc(S(N)(=O)=O)c2-c2nnn[nH]2)cc1 [Example 334, 4′-((methylamino)methyl)-2-(1H-tetrazol-5-yl)-[1,1′-biphenyl]-3-sulfonamide]	–	–	–	–	–	–	–	–	–	–	–	IC50 (NDM-1; [4]): 10.6 nM; IC50 (IMP-1; [5]): 385 nM; IC50 (VIM-1; [6]): 129 nM; Escherichia coli MITC95 [1, 7]: 0.3906 µM; Klebsiella pneumoniae MITC95 [2, 8]: 9.375 µM; Serratia marcescens MITC95 [3, 9]: 3.125 µM
NC1CCN(c2ccc(C(F)(F)F)c(S(N)(=O)=O)c2-c2nnn[nH]2)CC1 [Example 778, 3-(4-amino-1-piperidyl)-2-(1H-tetrazol-5-yl)-6-(trifluoromethyl) benzenesulfonamide]	147 nM	160 nM	3.125 µM	1.172 µM	1.563 µM	–	–	–	–	–	–	IC50 (VIM-1; [11]): 0.688 nM
NS(=O)(=O)c1c(C(F)(F)F)ccc(N2CCC(C3CCNCC3)C2)c1-c1nnn[nH]1 (stereo not drawn) [Example 774, 3-(3-piperidin-4-ylpyrrolidin-1-yl)-2-(1H-tetrazol-5-yl)-6-(trifluoromethyl) benzenesulfonamide]	62.6 nM	29.1 nM	25 µM	6.25 µM	25 µM	–	–	–	–	–	–	IC50 (VIM-1; [15]): 1.35 nM
NS(=O)(=O)c1cccc(-c2ccc(CN3CCCC3CO)cc2)c1-c1nnn[nH]1 (stereo not drawn) [Example 395, 4′-{[2-(hydroxymethyl)pyrrolidin-1-yl]methyl}-2-(1H-tetrazol-5-yl)biphenyl-3-sulfonamide]	–	–	–	–	–	–	–	–	–	–	–	IC50 (NDM-1; [4]): 14.4 nM; IC50 (IMP-1; [5]): 226 nM; IC50 (VIM-1; [6]): 343 nM; Escherichia coli MITC95 [1, 7]: 1.563 µM; Klebsiella pneumoniae MITC95 [2, 8]: 100 µM; Serratia marcescens MITC95 [3, 9]: 3.125 µM
CN(C)c1ccc(C(F)(F)F)c(S(N)(=O)=O)c1-c1nnn[nH]1 [Example 784, 3-(dimethylamino)-2-(1H-tetrazol-5-yl)-6-(trifluoromethyl) benzenesulfonamide]	41.7 nM	48.3 nM	3.125 µM	31.25 µM	3.125 µM	–	–	–	–	–	–	IC50 (VIM-1; [11]): 15.5 nM
Nc1nc2cc(-c3ccc(C(F)(F)F)c(S(N)(=O)=O)c3-c3nnn[nH]3)ccc2s1 [Example 550, 3-(2-amino-1,3-benzothiazol-5-yl)-2-(1H-tetrazol-5-yl)-6-(trifluoromethyl)benzenesulfonamide]	–	–	–	–	–	0.753 nM	2.52 nM	0.315 nM	3.125 µM	12.5 µM	3.125 µM	–
NS(=O)(=O)c1nccc(N2CCC(Cc3ccncc3)CC2)c1-c1nnn[nH]1 [Example 238, 4-[4-(pyridin-4-ylmethyl)piperidin-1-yl]-3-(1H-tetrazol-5-yl)pyridine-2-sulfonamide]	30.8 nM	188 nM	–	–	–	–	–	–	–	–	–	IC50 (VIM-1; [15]): 96.9 nM; Escherichia coli expressing NDM-1 (CLB 30016) MITC95 [1, 22]: 3.125 µM; Klebsiella pneumoniae expressing VIM-1 (IHMA 599644) MITC95 [2, 22]: 125 µM; Serratia marcescens expressing IMP-1 (CL5741) MITC95 [3, 22]: 9.375 µM
NS(=O)(=O)c1c(C(F)(F)F)ccc([C@H]2CC[C@H](O)CC2)c1-c1nnn[nH]1 [Example 496]	–	–	–	–	–	0.506 nM	1.09 nM	0.397 nM	1.172 µM	3.125 µM	0.3906 µM	–
Nc1nc2cccc(-c3ccc(C(F)(F)F)c(S(N)(=O)=O)c3-c3nnn[nH]3)c2s1 [Example 553, 3-(2-amino-1,3-benzothiazol-7-yl)-2-(1H-tetrazol-5-yl)-6-(trifluoromethyl)benzenesulfonamide]	–	–	–	–	–	0.0499 nM	0.959 nM	0.0624 nM	3.125 µM	3.125 µM	3.125 µM	–

— patent US9708336B2, “Metallo-beta-lactamase inhibitors” (priority 2014, dated 2017)
